# Earlier results, collected in patent US20210308071A1, “Treatment method to abort and or reduce the severity of upper respiratory viral illness as well as to prevent upper respiratory viral illness in humans” (priority 2020, published 2021).
# Read-outs that look alike come from different tables or passages of the source.
# Conditions: for orally administered dose excreted as the glucuronic acid conjugate within 24 hours: humans
structure (smiles),measurement,setting,value
CC1(C)C2CCC1(C)C(O)C2 (stereo not drawn) [Borneol],administered dose detected as the glucuronic acid conjugate in human urine,10 hours after ingestion of 2000 mg,81%
same,orally administered dose excreted as the glucuronic acid conjugate within 24 hours,oral 1000 mg,81%
same,orally administered dose excreted as the glucuronic acid conjugate within 24 hours,oral 2000 mg,94%
